Test results as given in ChEMBL document CHEMBL1201862, “PubChem BioAssay data set” (2004).
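Interpolation was linear, between the two tested concentrations surrounding the appropriate level; five concentrations were tested over 48 hours in 96-well plates. The concentration for 50% growth inhibition is given as GI50.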 Active and inactive are the calls of the source. No stated cut-off is given here; in the data, active = GI50 up to about 1.1 µM and inactive = higher.

Assays:
Experiment in all cases: growth of human tumour cells (NCI), 48 h
[1] = test system: SK-MEL-28
[2] = test system: IGROV-1
[3] = test system: UO-31
[4] = test system: OVCAR-5
[5] = test system: CAKI-1
[6] = test system: EKVX
[7] = test system: UACC-257
[8] = test system: NCI-H23
[9] = test system: SF-539
[10] = test system: K562
[11] = test system: HOP-62
[12] = test system: HCT-15
[13] = test system: SNB-19
[14] = test system: NCI-H522
[15] = test system: SF-268
[16] = test system: HOP-92
[17] = test system: SR

SMILES | GI50 [1] | GI50 [2] | GI50 [3] | GI50 [4] | GI50 [5] | GI50 [6] | GI50 [7] | GI50 [8] | GI50 [9] | GI50 [10] | GI50 [11] | GI50 [12] [µM] | GI50 [13] | GI50 [14] | GI50 [15] | GI50 [16] | GI50 [17]
CCOC(=O)C(C)(c1c(C)[nH]c2ccccc12)c1c(C)[nH]c2ccccc12 | 15.3 µM (inactive) | 20.6 µM (inactive) | 12.5 µM (inactive) | 19.6 µM (inactive) | 14.3 µM (inactive) | 25.5 µM (inactive) | 14.8 µM (inactive) | 17.1 µM (inactive) | 18.7 µM (inactive) | 8.36 µM (inactive) | 18.9 µM (inactive) | 15 |  |  |  |  | 
CC(C)(C)C(=O)CC(=O)C(C)(C)C.CC(C)(C)C(=O)CC(=O)C(C)(C)C.[SiH4] | 3.15 µM (inactive) | 1.47 µM (inactive) | 1.99 µM (inactive) | 2.21 µM (inactive) | 0.579 µM (active) | < 0.01 µM (active) | 2.44 µM (inactive) | 1.04 µM (active) | 2.56 µM (inactive) | 1.57 µM (inactive) | 2.33 µM (inactive) |  | 1.96 µM (inactive) | 0.573 µM (active) | 1.76 µM (inactive) | 0.692 µM (active) | 
COc1cc(Nc2nc3ccc(C(F)(F)F)cc3nc2-c2ccccc2)cc(OC)c1OC | 40.8 µM (inactive) | > 100 µM (inactive) | 10 µM (inactive) | 20.7 µM (inactive) | 18.8 µM (inactive) | 18.2 µM (inactive) | 16.1 µM (inactive) | 67.5 µM (inactive) | 25.2 µM (inactive) | 5.56 µM (inactive) | > 100 µM (inactive) | 4.41 |  | 27.8 µM (inactive) | 5.75 µM (inactive) | 0.991 µM (active) | 8.3 µM (inactive)
CCCC12Cc3c(OC)ccc(OC)c3CC(Cc3c(OC)ccc(OC)c31)C2=O (stereo not given) | > 100 µM (inactive) |  | > 100 µM (inactive) | > 100 µM (inactive) | 9.64 µM (inactive) | > 100 µM (inactive) | > 100 µM (inactive) | > 100 µM (inactive) | > 100 µM (inactive) | > 100 µM (inactive) | > 100 µM (inactive) | > 100 | > 100 µM (inactive) | 81.5 µM (inactive) | > 100 µM (inactive) |  | 7.29 µM (inactive)
N=C(N)NCCCC(Nc1c2ccccc2nc2ccccc12)C(=O)O (stereo not given) | > 100 µM (inactive) |  |  | > 100 µM (inactive) | > 100 µM (inactive) | > 100 µM (inactive) | > 100 µM (inactive) | > 100 µM (inactive) | > 100 µM (inactive) | 84.9 µM (inactive) |  | > 100 |  | 44 µM (inactive) | > 100 µM (inactive) | > 100 µM (inactive) | > 100 µM (inactive)
CCSC1(SCC)CCN(/C=N/C(C)(C)C)C1 | > 100 µM (inactive) | > 100 µM (inactive) | > 100 µM (inactive) | > 100 µM (inactive) | > 100 µM (inactive) | > 100 µM (inactive) | > 100 µM (inactive) | > 100 µM (inactive) | > 100 µM (inactive) | > 100 µM (inactive) | > 100 µM (inactive) | > 100 | > 100 µM (inactive) | > 100 µM (inactive) | > 100 µM (inactive) |  | > 100 µM (inactive)
COc1ccc2c(c1OC)C1=C(C2=O)c2cc3c(cc2CCN1)OCO3 | 42.7 µM (inactive) | 68.1 µM (inactive) | 48.3 µM (inactive) | 23.7 µM (inactive) | 27.3 µM (inactive) | 46.9 µM (inactive) | 34.5 µM (inactive) | 46.5 µM (inactive) | 28.2 µM (inactive) | 25.1 µM (inactive) | 48.6 µM (inactive) | 29.4 |  |  | 41.9 µM (inactive) | 58.6 µM (inactive) | 21 µM (inactive)
COC1C=CC23c4cc5c(cc4C(O)OC2CN(C)C3C1)OCO5 (stereo not given) |  | 4.72 µM (inactive) | 2.69 µM (inactive) | 3.34 µM (inactive) | 2.98 µM (inactive) | 3.55 µM (inactive) | 1.77 µM (inactive) | 2.94 µM (inactive) | 1.08 µM (active) | 1.77 µM (inactive) | 2.54 µM (inactive) |  | 1.65 µM (inactive) | 2 µM (inactive) | 3.37 µM (inactive) |  | 1.17 µM (inactive)
COc1ccc(-c2cc(=O)c3c(OC)cccc3o2)c(OC)c1OC | > 100 µM (inactive) | > 100 µM (inactive) |  | > 100 µM (inactive) | > 100 µM (inactive) |  | > 100 µM (inactive) | > 100 µM (inactive) | > 100 µM (inactive) | 68.5 µM (inactive) | > 100 µM (inactive) | > 100 |  | > 100 µM (inactive) | > 100 µM (inactive) | 39.9 µM (inactive) | 56.1 µM (inactive)
